Results taken from BindingDB's records for doi:10.1021/bi701954p (University of Maryland Biotechnology Institute, 2008).
Values joined by “and” are separate entries in the source; they are usually repeats but may differ in a detail not shown here. Equal values may be shown once.

biological target: T1, Oxaloacetate decarboxylase (Pseudomonas aeruginosa (strain ATCC 15692 / DSM 22644 / CIP 104116 / JCM 14847 / LMG 12228 / 1C / PRS 101 / PAO1), UniProt Q9HUU1); assay: Inhibition Assay
T1 sequence (Q9HUU1 whole entry): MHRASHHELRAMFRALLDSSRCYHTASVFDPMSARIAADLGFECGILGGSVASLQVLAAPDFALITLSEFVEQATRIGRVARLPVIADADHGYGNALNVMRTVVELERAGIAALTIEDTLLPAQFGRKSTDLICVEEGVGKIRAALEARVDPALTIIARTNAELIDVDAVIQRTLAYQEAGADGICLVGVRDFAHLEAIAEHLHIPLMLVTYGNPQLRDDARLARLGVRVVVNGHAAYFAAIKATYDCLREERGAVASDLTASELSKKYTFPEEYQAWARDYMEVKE
Source text: Competitive inhibition constant determined for PA4872 catalyzed oxaloacetate decarboxylation.

Compound	Ki
O=C(O)C(=O)O	43 µM
O=C(O)C(O)(O)C(F)(F)C(=O)O [3,3-Difluoroxaloacetate]	450 µM
O=C(O)C(=O)CP(=O)(O)O [Phosphonopyruvate]	3000 µM

Other lines, results leading:

Ki	Compound
1090 µM and 560 µM	CC(=O)CC(=O)C(=O)O [Acetopyruvate]
7200 µM	CC(=O)C(=O)O [Pyruvate]
6700 µM and 3200 µM	CCCC(=O)C(=O)O [alpha-ketovalerate]
